Data as given in patent publication US7728012B2, “Carboxamide compounds and their use as calpain inhibitors” (Abbott GmbH & Co. KG, priority 2006, dated 2010).
pKi: −log10 of the molar value.

Legend:
Assay type in all cases: biochemical
[1] = biological target: T1, recombinant human cathepsin S (Homo sapiens, UniProt P25774); assay: Cathepsin S kinetic fluorescence enzyme inhibition assay; conditions: selectivity ratio versus calpain I
T1 construct: purchased Calbiochem 219343; host or cells: E. coli
T1 sequence (P25774 115-331): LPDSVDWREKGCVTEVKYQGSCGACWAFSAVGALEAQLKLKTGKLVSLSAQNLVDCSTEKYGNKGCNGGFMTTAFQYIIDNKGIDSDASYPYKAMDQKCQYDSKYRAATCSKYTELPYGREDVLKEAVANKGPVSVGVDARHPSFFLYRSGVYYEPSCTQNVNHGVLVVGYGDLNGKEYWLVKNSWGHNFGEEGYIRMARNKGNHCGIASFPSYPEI
Outline: (§1)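 Cathepsin B (0.25 nM, human liver) with 100 μM Z-Phe-Arg-AMC; L (1 nM, human liver) with 2 μM Z-Phe-Arg-AMC; S (0.5 nM, recombinant) with 20 μM Z-Val-Val-Arg-AMC. pH 6.0 MES buffer, 2.5 mM L-cysteine, room temperature. Kinetic fluorescence (ex 390/em 460 nm); apparent Ki from IC50 by Cheng-Prusoff.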

[2] = biological target: T2, cathepsin B isolated from human liver (Homo sapiens, UniProt P07858); assay: Cathepsin B kinetic fluorescence enzyme inhibition assay; conditions: selectivity ratio versus calpain I
T2 construct: cathepsin B—isolated from human liver; purchased Calbiochem 219362; host or cells: human liver (tissue isolate)
Outline: as §1

[3] = biological target: T3, cathepsin K activated from recombinant human procathepsin K (Homo sapiens, UniProt P43235); assay: Cathepsin K kinetic fluorescence enzyme inhibition assay; conditions: selectivity ratio versus calpain I
T3 construct: purchased Calbiochem 342001; host or cells: E. coli
T3 sequence (P43235 115-329): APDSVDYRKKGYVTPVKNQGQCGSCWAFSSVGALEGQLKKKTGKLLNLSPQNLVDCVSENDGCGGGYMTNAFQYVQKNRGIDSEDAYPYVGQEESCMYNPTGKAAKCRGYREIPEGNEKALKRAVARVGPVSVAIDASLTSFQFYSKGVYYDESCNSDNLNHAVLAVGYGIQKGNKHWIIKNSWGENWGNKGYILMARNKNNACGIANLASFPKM

[4] = biological target: T4, calpain-I isolated from human erythrocytes (Homo sapiens, UniProt P07384); assay: Calpain I kinetic fluorescence enzyme inhibition assay; conditions: apparent Ki from IC50 by Cheng-Prussoff; average of 2 to 4 dose-effect plots
T4 construct: calpain-I—isolated from human erythrocytes; purchased Calbiochem 208713; host or cells: human erythrocytes (tissue isolate)
T4 sequence (P07384 1-714): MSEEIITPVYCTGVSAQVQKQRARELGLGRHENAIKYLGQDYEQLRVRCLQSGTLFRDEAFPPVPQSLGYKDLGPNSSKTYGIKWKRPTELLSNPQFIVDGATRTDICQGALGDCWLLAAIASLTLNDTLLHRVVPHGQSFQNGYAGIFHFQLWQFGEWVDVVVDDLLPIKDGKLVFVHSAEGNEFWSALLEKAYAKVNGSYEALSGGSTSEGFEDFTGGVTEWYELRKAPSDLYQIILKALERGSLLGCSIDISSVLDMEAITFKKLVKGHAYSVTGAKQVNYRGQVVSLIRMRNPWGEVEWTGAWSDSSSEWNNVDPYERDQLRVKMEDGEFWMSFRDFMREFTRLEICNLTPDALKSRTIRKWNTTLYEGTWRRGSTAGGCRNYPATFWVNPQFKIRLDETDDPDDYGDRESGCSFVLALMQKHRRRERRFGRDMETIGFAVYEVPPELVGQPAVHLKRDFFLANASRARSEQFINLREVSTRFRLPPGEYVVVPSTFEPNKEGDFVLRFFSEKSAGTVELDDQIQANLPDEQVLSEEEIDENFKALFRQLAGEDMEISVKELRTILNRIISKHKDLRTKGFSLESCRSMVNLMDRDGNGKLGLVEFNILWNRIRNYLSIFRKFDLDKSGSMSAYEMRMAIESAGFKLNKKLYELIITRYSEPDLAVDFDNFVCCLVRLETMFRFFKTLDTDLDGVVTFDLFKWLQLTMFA
T4 sequence (P04632 1-268 partner): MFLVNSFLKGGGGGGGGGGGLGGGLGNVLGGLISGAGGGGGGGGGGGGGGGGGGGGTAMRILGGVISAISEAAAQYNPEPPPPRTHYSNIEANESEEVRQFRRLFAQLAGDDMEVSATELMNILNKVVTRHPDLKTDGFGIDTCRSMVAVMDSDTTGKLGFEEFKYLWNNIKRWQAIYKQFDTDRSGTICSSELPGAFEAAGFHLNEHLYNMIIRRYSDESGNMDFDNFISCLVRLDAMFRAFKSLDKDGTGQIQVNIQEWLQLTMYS

[5] = biological target: T5, cathepsin L isolated from human liver (Homo sapiens, UniProt P07711); assay: Cathepsin L kinetic fluorescence enzyme inhibition assay; conditions: selectivity ratio versus calpain I
T5 construct: cathepsin L—isolated from human liver; purchased Calbiochem 219402; host or cells: human liver (tissue isolate)
T5 sequence (P07711 114-333): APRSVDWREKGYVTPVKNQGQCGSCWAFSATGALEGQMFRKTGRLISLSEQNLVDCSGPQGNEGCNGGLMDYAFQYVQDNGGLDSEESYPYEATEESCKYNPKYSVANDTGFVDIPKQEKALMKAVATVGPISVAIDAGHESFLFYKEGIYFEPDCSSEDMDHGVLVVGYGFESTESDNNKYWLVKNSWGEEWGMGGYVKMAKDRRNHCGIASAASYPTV
Outline: as §1

Row | SMILES | Sel cat. K (Ki(cathepsin K)/Ki(calpain) ratio) [3] | pKi [4] | Sel cat. S (Ki(cathepsin S)/Ki(calpain) ratio) [1] | Sel cat. B (Ki(cathepsin B)/Ki(calpain) ratio) [2] | Sel cat. L (Ki(cathepsin L)/Ki(calpain) ratio) [5]
1 | NC(=O)C(=O)C(Cc1ccccc1)NC(=O)c1cccnc1-n1ccc(-c2cccc(OCc3ccccc3)c2)n1 (stereo not shown) [Example 96, N-[3-Amino-2,3-dioxo-1-(phenylmethyl)propyl]-2-(3-{3-[(phenylmethyl)oxy]phenyl}-1H-pyrazol-1-yl)pyridine-3-carboxamide] | ++ (Ki(cathepsin K)/Ki(calpain) ratio of ≧30) | ≥ 7.40 | ++ (Ki(cathepsin S)/Ki(calpain) ratio of ≧100) | ++ (Ki(cathepsin B)/Ki(calpain) ratio of ≧30) | ++ (Ki(cathepsin L)/Ki(calpain) ratio of ≧50)
2 | COc1ccc(CC(NC(=O)c2cccnc2-n2ccc(-c3ccc(F)cc3Cl)n2)C(=O)C(N)=O)cc1 (stereo not shown) [Example 111, N-(3-Amino-1-{[4-(methyloxy)phenyl]methyl}-2,3-dioxopropyl)-2-[3-(2-chloro-4-fluorophenyl)-1H-pyrazol-1-yl]pyridine-3-carboxamide] | ++ (Ki(cathepsin K)/Ki(calpain) ratio of ≧30) | ≥ 7.40 | ++ (Ki(cathepsin S)/Ki(calpain) ratio of ≧100) | ++ (Ki(cathepsin B)/Ki(calpain) ratio of ≧30) | ++ (Ki(cathepsin L)/Ki(calpain) ratio of ≧50)
3 | NC(=O)C(=O)C(Cc1ccccc1)NC(=O)c1cccnc1-n1ccc(-c2ccc(N3CCCC3)cc2)n1 (stereo not shown) [Example 69, N-(3-Amino-1-benzyl-2,3-dioxopropyl)-2-[3-(4-pyrrolidin-1-ylphenyl)-1H-pyrazol-1-yl]nicotinamide] | + (10≦Ki(cathepsin K)/Ki(calpain)<30) | 7.00 to 7.40 | ++ (Ki(cathepsin S)/Ki(calpain) ratio of ≧100) | + (10≦Ki(cathepsin B)/Ki(calpain)<30) | ++ (Ki(cathepsin L)/Ki(calpain) ratio of ≧50)
4 | NC(=O)C(=O)C(Cc1ccccc1)NC(=O)c1cccnc1-n1ccc(-c2ccccn2)n1 (stereo not shown) [Example 35, N-(3-Amino-1-benzyl-2,3-dioxopropyl)-2-(3-pyridin-2-yl-1H-pyrazol-1-yl)nicotinamide] | + (10≦Ki(cathepsin K)/Ki(calpain)<30) | 7.00 to 7.40 | ++ (Ki(cathepsin S)/Ki(calpain) ratio of ≧100) | + (10≦Ki(cathepsin B)/Ki(calpain)<30) | ++ (Ki(cathepsin L)/Ki(calpain) ratio of ≧50)
5 | NC(=O)C(=O)C(Cc1ccccc1)NC(=O)c1cccnc1-n1ccc(-c2cccc(Cl)c2Cl)n1 (stereo not shown) [Example 115, N-[3-Amino-2,3-dioxo-1-(phenylmethyl)propyl]-2-[3-(2,3-dichlorophenyl)-1H-pyrazol-1-yl]pyridine-3-carboxamide] | ++ (Ki(cathepsin K)/Ki(calpain) ratio of ≧30) | ≥ 7.40 | ++ (Ki(cathepsin S)/Ki(calpain) ratio of ≧100) | ++ (Ki(cathepsin B)/Ki(calpain) ratio of ≧30) | ++ (Ki(cathepsin L)/Ki(calpain) ratio of ≧50)
6 | COc1c(C)cc(C)cc1-c1ccn(-c2ncccc2C(=O)NC(Cc2ccccc2)C(=O)C(N)=O)n1 (stereo not shown) [Example 121, N-[3-Amino-2,3-dioxo-1-(phenylmethyl)propyl]-2-{3-[3,5-dimethyl-2-(methyloxy)phenyl]-1H-pyrazol-1-yl}pyridine-3-carboxamide] | ++ (Ki(cathepsin K)/Ki(calpain) ratio of ≧30) | ≥ 7.40 | ++ (Ki(cathepsin S)/Ki(calpain) ratio of ≧100) | ++ (Ki(cathepsin B)/Ki(calpain) ratio of ≧30) | ++ (Ki(cathepsin L)/Ki(calpain) ratio of ≧50)
7 | NC(=O)C(=O)C(Cc1ccccc1)NC(=O)c1cccnc1-n1cc2c(n1)-c1ccccc1S(=O)(=O)C2 (stereo not shown) [Example 174, N-[3-Amino-2,3-dioxo-1-(phenylmethyl)propyl]-2-(5,5-dioxidothiochromeno[4,3-c]pyrazol-2(4H)-yl)pyridine-3-carboxamide] | + (10≦Ki(cathepsin K)/Ki(calpain)<30) | ≥ 7.40 | ++ (Ki(cathepsin S)/Ki(calpain) ratio of ≧100) | + (10≦Ki(cathepsin B)/Ki(calpain)<30) | ++ (Ki(cathepsin L)/Ki(calpain) ratio of ≧50)
8 | COc1cc(F)ccc1-c1ccn(-c2ncccc2C(=O)NC(Cc2ccccc2)C(=O)C(N)=O)n1 (stereo not shown) [Example 125, N-[3-Amino-2,3-dioxo-1-(phenylmethyl)propyl]-2-{3-[4-fluoro-2-(methyloxy)phenyl]-1H-pyrazol-1-yl}pyridine-3-carboxamide] | ++ (Ki(cathepsin K)/Ki(calpain) ratio of ≧30) | ≥ 7.40 | ++ (Ki(cathepsin S)/Ki(calpain) ratio of ≧100) | ++ (Ki(cathepsin B)/Ki(calpain) ratio of ≧30) | ++ (Ki(cathepsin L)/Ki(calpain) ratio of ≧50)

More lines, main results first:

Row | Sel cat. K (Ki(cathepsin K)/Ki(calpain) ratio) [3] | pKi [4] | SMILES | Sel cat. S (Ki(cathepsin S)/Ki(calpain) ratio) [1] | Sel cat. B (Ki(cathepsin B)/Ki(calpain) ratio) [2] | Sel cat. L (Ki(cathepsin L)/Ki(calpain) ratio) [5]
9 | + (10≦Ki(cathepsin K)/Ki(calpain)<30) | ≥ 7.40 | NC(=O)C(=O)C(Cc1ccccc1)NC(=O)c1cccnc1-n1ccc(-c2c(F)cc(F)cc2F)n1 (stereo not shown) [Example 116, N-[3-Amino-2,3-dioxo-1-(phenylmethyl)propyl]-2-[3-(2,4,6-trifluorophenyl)-1H-pyrazol-1-yl]pyridine-3-carboxamide] | ++ (Ki(cathepsin S)/Ki(calpain) ratio of ≧100) | ++ (Ki(cathepsin B)/Ki(calpain) ratio of ≧30) | ++ (Ki(cathepsin L)/Ki(calpain) ratio of ≧50)
10 | + (10≦Ki(cathepsin K)/Ki(calpain)<30) | 7.00 to 7.40 | NC(=O)C(=O)C(Cc1ccccc1)NC(=O)c1cccnc1-n1ccc(-c2ccc(F)cc2F)n1 (stereo not shown) [Example 94, N-[3-Amino-2,3-dioxo-1-(phenylmethyl)propyl]-2-[3-(2,4-difluorophenyl)-1H-pyrazol-1-yl]pyridine-3-carboxamide] | ++ (Ki(cathepsin S)/Ki(calpain) ratio of ≧100) | ++ (Ki(cathepsin B)/Ki(calpain) ratio of ≧30) | ++ (Ki(cathepsin L)/Ki(calpain) ratio of ≧50)
11 | + (10≦Ki(cathepsin K)/Ki(calpain)<30) | ≥ 7.40 | NC(=O)C(=O)C(Cc1ccccc1)NC(=O)c1cccnc1-n1ccc(-c2cccc(OC(F)(F)F)c2)n1 (stereo not shown) [Example 168, N-[3-Amino-2,3-dioxo-1-(phenylmethyl)propyl]-2-(3-{3-[(trifluoromethyl)oxy]phenyl}-1H-pyrazol-1-yl)pyridine-3-carboxamide] | ++ (Ki(cathepsin S)/Ki(calpain) ratio of ≧100) | + (10≦Ki(cathepsin B)/Ki(calpain)<30) | ++ (Ki(cathepsin L)/Ki(calpain) ratio of ≧50)
